# Literature values as cited in US20240245680A1, “Methods of Treating Retinal Vasculopathies” (Unity Biotechnology, Inc., priority 2021, published 2024).
# Assays:
# glutaminase C (GAC) = target: T1, glutaminase C (GAC) (Homo sapiens, UniProt O94925); conditions: cited from earlier work
# T1 sequence (O94925 55-598 isoform O94925-3 limits assumed): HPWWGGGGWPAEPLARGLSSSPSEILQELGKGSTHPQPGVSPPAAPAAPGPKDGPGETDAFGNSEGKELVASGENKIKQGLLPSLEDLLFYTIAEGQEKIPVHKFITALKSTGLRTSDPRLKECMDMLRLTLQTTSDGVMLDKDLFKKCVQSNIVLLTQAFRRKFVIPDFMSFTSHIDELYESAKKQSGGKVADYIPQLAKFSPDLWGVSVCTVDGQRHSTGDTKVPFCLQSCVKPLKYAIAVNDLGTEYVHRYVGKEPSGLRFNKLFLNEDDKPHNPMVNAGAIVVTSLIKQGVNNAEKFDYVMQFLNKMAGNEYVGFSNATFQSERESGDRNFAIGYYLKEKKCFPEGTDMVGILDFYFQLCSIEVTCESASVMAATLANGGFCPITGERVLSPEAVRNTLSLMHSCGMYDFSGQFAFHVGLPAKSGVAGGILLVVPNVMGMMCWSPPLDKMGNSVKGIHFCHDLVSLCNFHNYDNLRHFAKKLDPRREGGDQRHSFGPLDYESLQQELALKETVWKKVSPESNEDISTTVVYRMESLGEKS
# GLS2 = target: T2, GLS2 (Homo sapiens, UniProt Q9UI32); conditions: cited from earlier work
# T2 sequence (Q9UI32 15-602): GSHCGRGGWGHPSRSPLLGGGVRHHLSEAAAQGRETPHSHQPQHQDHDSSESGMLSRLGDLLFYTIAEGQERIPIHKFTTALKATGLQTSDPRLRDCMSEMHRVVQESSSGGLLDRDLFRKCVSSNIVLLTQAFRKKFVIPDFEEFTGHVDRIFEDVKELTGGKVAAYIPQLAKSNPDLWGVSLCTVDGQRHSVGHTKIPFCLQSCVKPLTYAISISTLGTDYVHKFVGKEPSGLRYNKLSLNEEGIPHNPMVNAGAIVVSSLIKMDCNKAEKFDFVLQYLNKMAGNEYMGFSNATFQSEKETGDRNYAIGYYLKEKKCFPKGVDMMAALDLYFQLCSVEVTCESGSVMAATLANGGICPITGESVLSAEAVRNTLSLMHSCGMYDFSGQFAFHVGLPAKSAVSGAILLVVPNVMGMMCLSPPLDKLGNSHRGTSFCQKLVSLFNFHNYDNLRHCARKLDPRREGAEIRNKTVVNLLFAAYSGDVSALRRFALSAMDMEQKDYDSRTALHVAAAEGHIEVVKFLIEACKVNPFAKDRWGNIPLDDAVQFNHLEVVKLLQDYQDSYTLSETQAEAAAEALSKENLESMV
smiles,measurement,setting,value
O=C(Cc1ccccc1)Nc1nnc(NC2CCN(c3nnc(NC(=O)Cc4ccccc4)s3)CC2)s1 [UPGL00004],IC50,glutaminase C (GAC),29 nM
same,selectivity for GAC over GLS2,GLS2,high selectivity
